Results: patent publication US11834489B2 (priority 2017, dated 2023)

How the values were obtained:
[1] = target: Cy3B*/Cy7*-labelled β2Δ6-N148C/L266C with Gs(GDP) (Homo sapiens, UniProt P07550, C265A/C327S/C341L/C378A/C406A/C77V/L266C/N148C); type: biochemical; settings: transition rate from high- to low-FRET states; saturating ligand, 30 μM GDP, Gs titration
[2] = target: β2AR-Gs complex (Homo sapiens, UniProt P07550, C265A/C327S/C341L/C378A/C406A/C77V/L266C/N148C); type: biochemical; settings: normalized to adrenaline
[3] = system: β2AR; settings: compared to salbutamol, reference 27; cited from earlier work
[4] = target: labelled β2AR and biotinylated Gs (Homo sapiens, UniProt P07550, C265A/C327S/C341L/C378A/C406A/C77V/L266C/N148C); type: biochemical; settings: mean ± s.e.m.

- khigh→low [1]: 0.7 s⁻¹
- η2 ([2]; apparent EC50 for GDP binding): 1.0
- η1 ([2]; product of apparent kon and khigh→low): 1.0
- Lifetime, Biotin-Gs-immobilized, +GDP ([4]; after addition of 30 μM GDP): 11.8 ± 1.2 s
- Lifetime, Biotin-Gs-immobilized, +GTP ([4]; after addition of 100 μM GTP): 6.4 ± 0.1 s
- Lifetime, M1-immobilized ([4]; biotin-M1-Fab-immobilized β2AR in the absence of Gs): 13.2 ± 3.4 min
- Lifetime, Biotin-Gs-immobilized, GNP-free ([4]; nucleotide-free state): 11.2 ± 5.1 min
SMILES: CNCC(O)c1ccc(O)c(O)c1 (centres unmarked) [ADR, adrenaline]
- extent of [3H]GDP release [3]: greater extent of [^3H]GDP release
